We go through one compound from patent US8071645B2, “Systems and methods for treating human inflammatory and proliferative diseases and wounds, with fatty acid metabolism inhibitors and/or glycolytic inhibitors” (The Regents of the University of Colorado, priority 2003, dated 2011).

One assay has as its system L1210 cells. The assay is described as follows: DCFDA staining (reactive intermediates) of L1210 cells. It counts as cell-based. The settings on record: 24 hours of incubation, FIG. 12A. On the procedure: Flow Cytometry. Cells were harvested, counted, and resuspended at 10^6 cells/100 μl of PBS containing 2.5% fetal calf serum in preparation for flow cytometric analysis. Cells were stained for intracellular H202 using 6-carboxy-2′,7′-dichlorodihydrofluorescein diacetate (DCF-DA, Molecular Probes, Eugene, Oreg.). Briefly, cells were incubated at 37° with 1 mM DCF-DA for 20 minutes, washed twice in PBS containing 2.5% fetal calf serum and analyzed flow cytometrically. Mitochondrial membrane potential was assessed using Mitotracker Red (CM-H2XROS, Molecular Probes, Eugene, Oreg.). […] The cells were incubated at 37° for 20 minutes, washed twice in PBS containing 2.5% fetal calf serum and analyzed flow cytometrically. Data were acquired on a Coulter Elite Epics or Excel flow cytometer (Coulter, Hialeah, Fla.) and analyzed with CellQuest software, (Becton Dickinson, San Jose, Calif.). […] Each sample population was classified for cell size (forward scatter) and complexity (side scatter), gated on a population of interest and evaluated using 5,000 cells. […]
We measured the effects of etomoxir on metabolism by measuring mitochondrial membrane potential with a fluorescent dye (Mitotracker Red, Molecular Probes, Eugene, Oreg.) which fluoresces as a function of mitochondrial potential. […]

In assay [1] the test system is human leukemia HL60 cells. The assay is described as follows: DCFDA staining of HL60 cells. It is filed as cell-based. The settings on record: 24 hours of incubation, FIG. 14. The procedure: Flow Cytometry. Cells were harvested, counted, and resuspended at 10^6 cells/100 μl of PBS containing 2.5% fetal calf serum in preparation for flow cytometric analysis. Cells were stained for intracellular H202 using 6-carboxy-2′,7′-dichlorodihydrofluorescein diacetate (DCF-DA, Molecular Probes, Eugene, Oreg.). Briefly, cells were incubated at 37° with 1 mM DCF-DA for 20 minutes, washed twice in PBS containing 2.5% fetal calf serum and analyzed flow cytometrically. Mitochondrial membrane potential was assessed using Mitotracker Red (CM-H2XROS, Molecular Probes, Eugene, Oreg.). The cells were resuspended in PBS containing 2.5% fetal calf serum containing a final concentration of 0.5 micromolar Mitotracker dye. The cells were incubated at 37° for 20 minutes, washed twice in PBS containing 2.5% fetal calf serum and analyzed flow cytometrically. Data were acquired on a Coulter Elite Epics or Excel flow cytometer (Coulter, Hialeah, Fla.) and analyzed with CellQuest software, (Becton Dickinson, San Jose, Calif.). […] Each sample population was classified for cell size (forward scatter) and complexity (side scatter), gated on a population of interest and evaluated using 5,000 cells. […]
The effects of etomoxir on human leukemia HL60 cells was determined. […]

Take `CCOC(=O)C1(CCCCCCOc2ccc(Cl)cc2)CO1` (centres unmarked) [etomoxir, 2-(6-(4-chlorophenoxy)-hexyl)-oxirane-2-carboxylic acid ethyl ester]: in the assay on L1210 cells, the “free radicals (reactive intermediates), DCFDA staining” value was “increase”. In addition, the “reactive oxygen intermediates (DCFDA staining)” value in assay [1] is reported as “increases”.
